For data set [1], the system named is Helminthosporium solani. Description: Field trial 2010/2011 Netherlands: rate of germination of the spores on the potato tuber. The data set is classed as in vivo. To be noted: use of Imazalil; FIG. 3 fourth column. The method, then: (§1) For the treatment of the seed potato at or before the laying into the ground soil Proradix is used as a liquid mordant [Proradix WG (LF 4816-00); Sourcon […] GmbH & Co. KG, Tübingen, Germany], according to the information of the manufacturer in a concentration of 60 g/ha via the spraying method by using a ULV spraying device. Before the storage of the potatoes 20 g of Proradix WG is dissolved in a maximum of 2 l of water per barrel. The application onto the potatoes is also effected by means of a ULV spraying device. The laying of the potato and, if applicable, the treatment with Proradix and/or Imazalil is carried out in springtime and the harvest and storage and, if applicable, the treatment with Proradix and/or Imazalil is carried out in fall of the same year. In a further field trial conducted in the years of 2010/2011 in the Netherlands according to the EPPO guidelines the influence of Proradix in comparison to the chemical standard of Imazalil on the production of spores of the fungal pathogen of Helminthosporium solani, the initiator of the silver scurf, and the rate of germination of the spores on the potato tuber was examined.

Another data set deals with fish. The settings on record: in vivo; cited from earlier work.
The subject of the next data set is birds and ducks. To be noted: in vivo; cited from earlier work.
Data set [2] deals with Helminthosporium solani. As to the kind of experiment: Field trial 2010/2011 Netherlands: production of spores of the silver scurf pathogen on the potato tuber. The data set is classed as in vivo. The settings on record: treatment of the potato before the storage; FIG. 2. Here is the method:
as §1

Data set [3] concerns silver scurf on potato tubers. As to the kind of experiment: Field trial 2010/2011 Germany: Proradix in combination with Imazalil, affection by silver scurf after storage. The data set is classed as in vivo, Helminthosporium solani. The settings on record: exclusively Imazalil at the laying and the storage; vs untreated potatoes; FIG. 5 third column. The method, then: For the treatment of the seed potato at or before the laying into the ground soil Proradix is used as a liquid mordant [Proradix WG (LF 4816-00); Sourcon […] GmbH & Co. KG, Tübingen, Germany], according to the information of the manufacturer in a concentration of 60 g/ha via the spraying method by using a ULV spraying device. Before the storage of the potatoes 20 g of Proradix WG is dissolved in a maximum of 2 l of water per barrel. The application onto the potatoes is also effected by means of a ULV spraying device. The laying of the potato and, if applicable, the treatment with Proradix and/or Imazalil is carried out in springtime and the harvest and storage and, if applicable, the treatment with Proradix and/or Imazalil is carried out in fall of the same year. In a field trial conducted in the years of 2010 and 2011 in Germany according to the EPPO guidelines it was examined in detail, whether Proradix can also be effectively used in combination with the chemical of Imazalil. For this purpose a part of the potatoes remain untreated, a part was treated with the chemical of Imazalil at the laying, and a part was treated at the laying and also before the storage with the chemical of Imazalil, and yet another part was treated at the laying with Imazalil and before the storage with Proradix.

The text below walks through data of patent publication US10433556B2, “Treatment and/or prophylaxis of storage diseases of harvested material” (priority 2011, dated 2019).

SMILES strings stand for the structures.

With `C=CCOC(Cn1ccnc1)c1ccc(Cl)cc1Cl` (centres unmarked) [Imazalil], the “share of spores able to germinate” value in the data set on Helminthosporium solani [1] was “half”. Further, in the data set with fish, the toxicity for fish entry is reported as “toxic”. Besides, in the data set with birds and ducks, the “effect on birds and ducks” value is on record as “causes damages”. Also, the formation of spores result in the data set with Helminthosporium solani [2] is listed as “comparable”. Besides, the “affection by silver scurf after the storage” value in data set [3] is on record as “significantly diminished reduction”.
